From patent publication US4515708A, “Corrosion inhibitors” (Exxon Research & Engineering Co., priority 1982, dated 1985)
Read-outs that look alike come from different tables or passages of the source.

Columns and labels:
[1] = Solubility Test (35 wt% solution in isopropylalcohol shaken with water, brine or heptane); type: physicochemical
Method: The active material under test was made up into a 35 wt% solution in isopropylalcohol (IPA). 0.3 ml of this solution was shaken with 10 ml of each of the liquids in which solubility is to be tested: water, 5 wt% NaCl solution (brine) and heptane. The mixture was observed after 30 minutes and 24 hours.

[2] = Emulsion Test (3 wt% brine / heptane); type: physicochemical; design: Emulsion thickness after 30 mins: unit not given here; settings: for Time to break emulsion: 1 ml of 35 wt% IPA solution, 50 ml 3 wt% brine, 50 ml heptane; for Appearance after 30 mins, hydrocarbon: hydrocarbon layer; for Appearance after 30 mins, hydrocarbon / Appearance after 30 mins, water / Emulsion thickness after 30 mins: 50 ml 3 wt% brine/50 ml heptane; for Appearance after 30 mins, water: water layer
Method: 1 ml of the solutions used for Test A was shaken with 50 ml of 3 wt% brine and 50 ml of heptane for 1 minute in a 150 ml bottle. The emulsion was observed, and the time noted for the emulsion to break and form a clean interface with clear liquid layers. If at 30 minutes this had not occurred, the appearance was recorded together with the thickness of any persisting emulsion.

[3] = Corrosion Test 1 (dynamic wheel test; 3 wt% brine/Mentor 28; CO2 + H2S); settings: 24 h, 70° C.
Method: (§1) For each compound three mild steel coupons (approximately 100 mm×12 mm×1.5 mm) were tested at each concentration. Each was contacted in a 250 ml bottle with 200 ml of a test fluid either saturated with a carbon dioxide at 20° C. or containing 100 ppm hydrogen sulphide or having both CO2 and H2 S present in those amounts. The test fluid was treated with a 30% aqueous solution of the compound under test at 2, 10, 50 and 250 ppm except where indicated to the contrary. The coupon was subjected to a dynamic wheel test in which the bottle was mounted radially on the periphery of 650 mm diameter wheel which was rotated at about 40 rpm for 24 hours at 70° C. The weight loss was obtained, and also measured in a control experiment where no inhibitor was present. From this the % protection was calculated as % reduction in weight loss.
Test fluid: 100 ml 3 wt% brine/100 ml Mentor 28 (Mentor®28 is a depolarised kerosene available from Exxon Chemical Company)
(§2) Corrosives: Saturated CO2 +100 ppm H2 S

[4] = Corrosion Test 2 (dynamic wheel test; 3 wt% brine; CO2 + H2S); settings: 24 h, 70° C.
Method: as §1
Test Fluid: 200 ml 3 wt% brine
as §2

[5] = Film persistency corrosion test; settings: CO2 + H2S, 24 h, 70° C.
Method: […] A test fluid made up of equal proportions of 3 wt% brine and Mentor 28 was used, saturated with CO2 and containing 100 ppm H2 S as corrosives. Coupons were used as described for the previous corrosion test. A coupon was first immersed in test fluid containing corrosives and the inhibitor under test for 1 hour, then rinsed for 1 hour in a similar test fluid containing no inhibitor and finally transferred to a further test fluid again containing no inhibitor in which the dynamic wheel test was carried out at 70° C. for 24 hours.

[6] = Corrosion Test 3 (dynamic wheel test; 3 wt% brine + Mentor 28; CO2 only); settings: 24 h, 70° C.
Method: as §1
(§3) Test fluid: 100 ml 3 wt% brine+100 ml Mentor 28
Corrosives: Saturated CO2 only

[7] = Corrosion Test 4 (dynamic wheel test; 3 wt% brine + Mentor 28; H2S); settings: 24 h, 70° C.
Method: as §1, §3
Corrosives: 100 ppm H2 S (prior nitrogen purge)

[8] = 0.3 ml of 35 wt% IPA solution in 10 ml 5 wt% NaCl solution, 30 minutes and 24 hours
[9] = 0.3 ml of 35 wt% IPA solution in 10 ml water, observed after 30 minutes and 24 hours
[10] = 0.3 ml of 35 wt% IPA solution in 10 ml heptane, 30 minutes and 24 hours

Row | Compound | SOLUBILITY IN: Water [1, 9] | Time to break emulsion [2] [min] | Appearance after 30 mins, hydrocarbon [2] | Appearance after 30 mins, water [2] | % Protection ([3]; 2 ppm, 30% solution) [%] | % Protection ([3]; 10 ppm, 30% solution) [%] | % Protection ([3]; 50 ppm, 30% solution) [%] | % Protection ([3]; 250 ppm, 30% solution) [%] | % Protection ([4]; 2 ppm) [%] | % Protection ([4]; 10 ppm) [%] | % Protection ([4]; 50 ppm) [%] | % Protection ([4]; 250 ppm) [%] | % Protection ([5]; 500 ppm) [%] | % Protection ([5]; 1000 ppm) [%] | % Protection ([5]; 5000 ppm) [%] | % Protection ([6]; 2 ppm) [%] | % Protection ([6]; 10 ppm) [%] | % Protection ([6]; 250 ppm) [%] | % Protection ([7]; 2 ppm) [%] | % Protection ([7]; 10 ppm) [%] | further results
1 | NCCNCCNCCc1ccccn1 [Example 15] | S | 10 | clear | clear | 32 | 72 | 80 | 87 | 22 | 63 | 81 | 87 | 13 | 11 | 17 | – | – | – | – | – | SOLUBILITY IN: Brine [1, 8]: S
2 | CCCCCCCCCCCCNCCc1ccccn1 [Example 4] | S | > 30 | hazy | hazy | 21 | 73 | 93 | 94 | 24 | 94 | 95 | 96 | 14 | 14 | 14 | 0 | 0 | 61 | 20 | 42 | SOLUBILITY IN: Heptane [1, 10]: S; % Protection ([6]; 50 ppm): 7%; % Protection ([7]; 50 ppm): 50%; % Protection ([7]; 250 ppm): 66%
3 | CCCCCCCCCCCCCCCCCCNCCc1ccncc1 [Example 28] | S | > 30 | hazy | clear | 8 | 23 | 48 | 87 | 11 | 94 | 96 | 95 | 16 | 16 | 23 | 8 | 12 | 9 | 2 | 3 | Emulsion thickness after 30 mins [2]: 4.0; % Protection ([7]; 50 ppm): 49%; % Protection ([7]; 250 ppm): 56%
4 | CCCCCCNCCc1ccccn1 [Example 1] | – | 30 | clear | clear | 15 | 73 | 79 | 91 | 13 | 57 | 83 | 93 | 18 | 25 | 17 | – | – | – | 0 | 22 | SOLUBILITY IN: Brine [1]: S; SOLUBILITY IN: Heptane [1]: S; SOLUBILITY IN: Water [1]: S; % Protection ([7]; 50 ppm): 55%; % Protection ([7]; 250 ppm): 55%
5 | CCCCCCCCCCCCCCCCCCNCCc1ccccn1 [Example 7] | S | > 30 | emulsified | clear | 13 | 52 | 87 | 95 | 81 | 89 | 99 | 99 | 13 | 10 | 19 | 2 | 22 | 67 | – | – | SOLUBILITY IN: Heptane [1, 10]: S; % Protection ([6]; 50 ppm): 48%
6 | NCCNCCNCCNCCc1ccncc1 [Example 35] | S | 1 | clear | clear | – | – | – | – | – | – | – | – | 19 | 18 | 20 | – | – | – | – | – | SOLUBILITY IN: Brine [1, 8]: S
7 | CCCCCCCCCCCCNCCc1ccncc1 [Example 25] | S | > 30 | hazy | hazy | 28 | 53 | 88 | 96 | 5 | 44 | 79 | 94 | 17 | 15 | 20 | 10 | 6 | 27 | 11 | 17 | SOLUBILITY IN: Heptane [1, 10]: S; Emulsion thickness after 30 mins [2]: 0.2; % Protection ([6]; 50 ppm): 21%; % Protection ([7]; 50 ppm): 57%; % Protection ([7]; 250 ppm): 78%
8 | CCCCCCNCCc1ccncc1 [Example 22] | – | 1 | clear | clear | 41 | 67 | 81 | 87 | 11 | 9 | 41 | 74 | 19 | 20 | 23 | 9 | 5 | 7 | 8 | 50 | SOLUBILITY IN: Brine [1]: S; SOLUBILITY IN: Heptane [1]: S; SOLUBILITY IN: Water [1]: S; % Protection ([6]; 50 ppm): 13%; % Protection ([7]; 50 ppm): 67%; % Protection ([7]; 250 ppm): 67%
9 | NCCNCCNCCc1ccncc1 [Example 34] | S | 1 | clear | clear | 22 | 50 | 66 | 80 | 18 | 26 | 48 | 69 | – | – | – | 6 | 11 | 18 | 20 | 45 | SOLUBILITY IN: Brine [1, 8]: S; % Protection ([6]; 50 ppm): 13%; % Protection ([7]; 50 ppm): 62%; % Protection ([7]; 250 ppm): 67%
10 | c1ccc(CNCCc2ccccn2)cc1 [Example 8] | S | > 30 | clear | hazy | 21 | 72 | 81 | 81 | 37 | 69 | 75 | 85 | 19 | 22 | 24 | 13 | 32 | 37 | 8 | 12 | SOLUBILITY IN: Heptane [1, 10]: S; % Protection ([3]; 2 ppm, * active material added as undiluted compound): 46%; % Protection ([3]; 10 ppm, * active material added as undiluted compound): 53%; % Protection ([3]; 50 ppm, * active material added as undiluted compound): 88%; % Protection ([3]; 250 ppm, * active material added as undiluted compound): 97%; % Protection ([6]; 50 ppm): 34%; % Protection ([7]; 50 ppm): 40%; % Protection ([7]; 250 ppm): 55%
